Tests used:
hESCs (H9) = assay: Mesodermal differentiation of hPSCs with CHIR99021 (qRT-PCR, flow cytometry); format: cell-based, human
Procedure: A clinically compatible stepwise protocol was developed which follows endothelial development (FIG. 1A). To develop a fully defined system, KnockOut™ Serum Replacement substituted for animal serum and feeder cells. As a first step, two coating materials were compared (collagen and Matrigel™), and induced differentiation of hPSCs into the mesodermal lineage using CHIR99021, a GSK3β inhibitor which mimics Wnt activation. hESCs (H9) were plated onto dishes coated with 0.01% collagen or 10% Matrigel™ and were cultured for 3, 5, and 7 days in hESC medium with or without 3 µM CHIR99021. […] Flow cytometry analyses confirmed that the percentage of KDR+ cells was highest (51.2±4.3%) under these conditions.
The hESCs (H1, H7, and H9) and hiPSCs (BJ1 and PGP1 obtained from Dr. George Daley) were cultured in mTeSR™ 1 (STEMCELL Technologies) on 5% matrigel at 37° C., 5% CO2. For directed differentiation, enzymatically dissociated clumps of hPSCs (lower than passage 60) were cultured on 0.01% collagen-coated plates in DMEMF-12 including 20% Serum Replacement (SR) with or without addition of specific differentiation factors for 7-10 days. hPSCs were cultured on collagen coated plates for an additional 14 days.

[1] = tested on: mesodermally differentiated hPSCs; assay: Endothelial differentiation of mesodermally differentiated hPSCs with or without DLL4 (qRT-PCR, flow cytometry); format: cell-based, human
Description: Flow cytometric analyses also confirmed increases in PECAM1, CDH5, and VWF (FIG. 1D) and decreases in PTPRC (CD45), CD34, KIT (CD117), and PROM1 (CD133). […] Similar results were found in three hESC lines (H1, H7, and H9) and two hiPSC lines (BJ1 and PGP1) by flow cytometry and qRT-PCR. […] Immunocytochemistry confirmed expression of EC markers VWF and CDH5 as well.

Molecule | percentage of KDR+ cells (hESCs (H9); hESCs (H9), collagen coating, 3 µM CHIR99021, 3 days, flow cytometry) | POU5F1 (OCT4) expression (hESCs (H9); qRT-PCR) | expression of definitive ectoderm (SOX1) and endoderm (FOXA2) markers (hESCs (H9); qRT-PCR) | T (Brachyury) and KDR transcripts (hESCs (H9); qRT-PCR, collagen coating and CHIR99021 treatment for 3 days, vs Matrigel, 5 and 7 days, no CHIR99021) | PECAM1, CDH5, and VWF by flow cytometry ([1]; day 14, with vs without DLL4) | PTPRC (CD45), CD34, KIT (CD117), and PROM1 (CD133) by flow cytometry ([1]; day 14, with vs without DLL4) | KDR, PECAM1, CDH5 and VWF expression ([1]; qRT-PCR, day 14, addition of DLL4)
Cc1cnc(-c2cnc(NCCNc3ccc(C#N)cn3)nc2-c2ccc(Cl)cc2Cl)[nH]1 [CHIR99021, 6-[[2-[[4-(2,4-dichlorophenyl)-5-(5-methyl-1H-imidazol-2-yl)-2-pyrimidinyl]amino]ethyl]amino]-3-pyridinecarbonitrile] | 51.2±4.3% | reduced | not significantly changed | most highly expressed |  |  | 
DLL4: polypeptide comprising a mature human or mammalian peptide sequence encoded by a DLL4 gene; a Notch ligand |  |  |  |  | increases | decreases | further increased

Reference: US12344863B2, “Method of producing stem cell-derived endothelial cells and uses thereof” (Emory University, priority 2016, dated 2025)
